Paper PMC8096218, “Global RNA profiles show target selectivity and physiological effects of peptide-delivered antisense antibiotics” (Nucleic Acids Research, 2021)
Values joined by “and” are separate entries in the source; they are usually repeats but may differ in a detail not shown here. Equal values may be shown once. Read-outs that look alike come from different tables or passages of the source.

Key:
acpP mRNA = assay: RNA-seq differential expression, target transcript; format: cell-based, Salmonella enterica serovar Typhimurium; conditions: 5 μM KFF-/RXR-constructs, 10 μM Tat-constructs, triplicates; for reduction in acpP transcript levels (RNA-seq): 15 min post treatment, ∼10^6 cfu/ml, versus water control; for logFC acpP: edgeR, versus water, 15 min
Procedure: Bacterial overnight cultures were diluted 1:100 in fresh MHB and grown to OD600 0.5. The obtained cultures were diluted to ∼10^6 cfu/ml in non-cation-adjusted MHB. Afterward, the bacterial solution was transferred into low-binding 5 ml tubes (LABsolute) along with the 20× PNA, peptide or PPNA solution. The final concentrations were 5 μM for KFF- and RXR-PNAs, and 10 μM for Tat-PNAs. Equimolar concentrations were used for the respective peptide control conditions. As a negative control, cells were treated with the respective volume of sterile nuclease-free water, which was used as solvent for the test compounds.
A time kinetic was performed for subsequent northern blot analysis (5, 10, 15 min), in which the reaction was stopped at the indicated time points by using RNAprotect Bacteria (Qiagen). For RNA-seq analyses, adding RNAprotect Bacteria at 15 min post treatment stopped the reactions with the indicated PPNA constructs or the respective peptide. After vortexing for 5 s, the samples were incubated at room temperature for 10 min, followed by cell pelleting at 4°C and 21 100 ×g for 20 min. Pellets were directly used for RNA isolation or stored at –20°C (<2 days) until further processing. RNA was purified from bacterial pellets using isolation protocol #3, as described above (0.5 mg/ml lysozyme, miRNeasy).
DNase treatment, cDNA library preparation and sequencing was conducted at Vertis (Munich, Germany). The RNA samples were first fragmented using ultrasound (4 pulses of 30 s each at 4°C). Then, an oligonucleotide adapter was ligated to the 3′ ends of the RNA molecules. First-strand cDNA synthesis was performed using M-MLV reverse transcriptase and the 3′ adapter as primer. The first-strand cDNA was purified and the 5′ Illumina TruSeq sequencing adapter was ligated to the 3′ end of the antisense cDNA. The resulting cDNA was PCR-amplified to about 10–20 ng/μl using a high fidelity DNA polymerase. The cDNA was purified using the Agencourt AMPure XP kit (Beckman Coulter Genomics) and was analyzed by capillary electrophoresis. For Illumina NextSeq sequencing, the samples were pooled in approximately equimolar amounts. The cDNA pool was sequenced on an Illumina NextSeq 500 system using 75 bp read length.
Reads from the RNA-Seq experiments were trimmed, filtered and mapped against the S. enterica subsp. enterica serovar Typhimurium SL1344 reference genome and the three plasmids pSLT_SL1344, pCol1B9_SL1344 (other name is p2), and pRSF1010_SL1344 ([19]). BBDuk was applied to trim bases with a Phred quality score of <10, and adapters were removed simultaneously. Reads were then mapped against the reference genome using BBMap (v38.84) and then assigned genomic features, including both coding sequences and annotated sRNAs ([19],[29]) using the featureCounts method of the Subread (2.0.1) package.
All downstream analysis was performed using packages from the R/Bioconductor project. The raw read counts were imported and analyzed with edgeR (v3.30.0). Each set of PNA-peptide conjugate experiments (i.e. experiments with KFF, RXR and Tat peptide) was analyzed simultaneously. Genes with less than 14.6 counts per million (CPM) in at least three libraries were filtered. This cutoff value was calculated using 10/L, where L is the library size of the smallest sample (minimum library size) in millions.
Raw read counts were normalized by trimmed mean of M values (TMM) normalization. Differential expression analysis was conducted using edgeR ([31]). Estimation of quasi-likelihood (QL) dispersions was then run with the […] function. Then contrasts between all samples versus the water controls were created as input for the glmQLTest function.
Genes with an absolute fold change >2 and an adjusted P-value (Benjamini–Hochberg, ([32])) <0.001 were considered differentially expressed.

SL1344 ΔphoP = assay: MIC determination by broth microdilution; format: cell-based, Salmonella enterica serovar Typhimurium; conditions: ∼10^5 cfu/ml; for MIC in μM, SL1344 ΔphoP: Table 3, three biological replicates
Procedure: (§1) MIC values were determined by broth microdilution according to standard protocols with a few modifications ([26]). An overnight bacterial cell culture, supplemented with the appropriate antibiotic when needed, was diluted 1:100 in fresh MHB and grown to OD600 0.5. The obtained culture was diluted to ∼10^5 cfu/ml or 10^6 cfu/ml, as indicated, in non-cation-adjusted MHB. Subsequently, 190 μl bacterial solution was dispensed into a 96-well plate (Thermo Fisher Scientific) along with 10 μl of a 20x PPNA, PNA or peptide working solution. Growth was monitored by measuring the OD at 600 nm every 20 min in a Synergy H1 plate reader (Biotek) with continuous double-orbital shaking (237 cpm) at 37°C for 24 h.
Fig. S4. Growth kinetics for MIC determ ination of 10^5 cfu/m l Salmonella wt (SL1344) and its isogenic ∆phoP m utant in the pres ence of var ying concentrations of the indicated conjugates. ( A) KFF-acpP, KFF-acpP-scram bled (scr) or KFF peptide in serial dilutions from 10 µM to 0.3 µM. ( B) RXR- acpP, RXR-acpP-scram bled (scr) or RXR peptide in seria l d ilutions f rom 10 µM to 0. 3 µM. ( C) T at-acpP, T at-acpP-scrambled (scr) or T at peptide in serial dilutions from 20 µM to 0.6 µM. D ata represent the average of three biological replicates, error bars indicate standard er ror of the m ean […]
(§2) (1 picture or pasted object on this page, not shown here)

[1] = test system: wild-type (wt) Salmonella enterica serovar Typhimurium strain SL1344; conditions: for MIC: non-cation-adjusted MHB, 37°C, 24 h; for MIC in μM, SL1344 wt: Table 3, three biological replicates
Procedure: as §1

LT2 PhoP^C = assay: MIC determination by broth microdilution; format: cell-based, Salmonella enterica serovar Typhimurium; conditions: ∼10^5 cfu/ml; for increase in the MIC in the PhoP^C background compared to the wild-type strain: LT2 PhoP^C versus LT2 wt; for MIC in μM, LT2 PhoP^C: Table 3, three biological replicates
Procedure: as §1
Fig. S5. Growth k inetics for MIC determ ination of 10^5 cfu/m l Salmonella wt (LT 2) and its isogenic
Pho PC m utant in the presen ce of var ying co ncentra tio n s of the in dicat ed co njugat e s. ( A) KFF-acpP,
KFF-acpP-scram bled (scr) or KFF peptide in s erial dilutions from 10 µM to 0.3 µM. ( B) RXR- acpP,
RXR- acpP-scram bled (scr) or RXR peptide in serial dilutions from 10 µM to 0.3 µ M. ( C) T at-acpP,
T at-acpP-scram bled (scr) or T at peptide in serial dilutions from 20 µM to 0.6 µM. Data represent
the average of three biological replicates, error bars indicate standard error of the m ean (SEM).
as §2

[2] = Table 1, ∼10^5 cfu/ml, lowest concentration with OD600 < 0.1
[3] = Table 2, ∼10^6 cfu/ml, performed three times

Sequence	reduction in acpP transcript levels (RNA-seq) (acpP mRNA)	logFC acpP (acpP mRNA)	reduction in the MIC of the ΔphoP strain compared to wild-type Salmonella (SL1344 ΔphoP; SL1344 ΔphoP versus SL1344 wt) [fold]	MIC in μM, SL1344 ΔphoP (SL1344 ΔphoP)	MIC ([1]; Table 1, ∼10^5 cfu/ml) [µg/mL]	MIC [1, 2] [µM]	MIC [1, 3] [µM]	MIC in μM, SL1344 wt ([1]; ∼10^5 cfu/ml) [µM]	increase in the MIC in the PhoP^C background compared to the wild-type strain (LT2 PhoP^C)	MIC in μM, LT2 PhoP^C (LT2 PhoP^C)
GRKKKRRQRRRYK [Tat-acpP, Tat peptide conjugated to 10-mer antisense PNA against acpP]	~3 fold	-1.6191	2	2.5 µM	22	5	10	5	at least two to four times more resistant	10 µM
KFFKFFKFFK [KFF-acpP, KFF peptide conjugated to 10-mer antisense PNA against the translational start site of acpP]	4.5- to 5 fold	-2.241		did not alter the MIC and 1.25 μM	5	1.25	5	1.25		did not influence the inhibitory activity and 1.25 μM
RXRRXRRXRRXRXB [RXR-acpP, RXR peptide conjugated to 10-mer antisense PNA against acpP]	4.5- to 5 fold	-2.35		1.25 to 2.5 µM	11	2.5	5	2.5	2 fold	2.5 µM
